One assay has as its target T1, tubulin (Sus scrofa, UniProt P02550+P02554).
T1 construct: Tubulin is purified from pig brain according to published methods; from tissue; host or cells: pig brain
Briefly: Evaluation of the inhibition of tubulin polymerization (turbidimetry). Type of assay: biochemical, pig. The note with it: tubulin 10 μm (1 mg/ml), 37° C., turbidity at 350 nm; concentration that inhibits the rate of polymerization by 50%; read-out: Inhibition of tubulin polymerization IC 50 (μm). In outline: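 Pig brain tubulin (>95% pure), 10 μm in MES pH 6.8/30% glycerol buffer plus 1 mM GTP and 6 mM MgCl2, with compound at 0.5–10 μm added before polymerization. Polymerization triggered by shift from 6° C to 37° C, followed by turbidity at 350 nm; IC50 is 50% inhibition of polymerization rate.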

The test system of a further assay is HCT116 cells. Kind of assay: Inhibition of proliferation of the human colon tumor line HCT116 ([14C]-thymidine incorporation). The note with it: Homo sapiens, HCT-116, 48 h, 48 hours at 37° C., read-out: Inhibition of HCT116 proliferation IC 50 (μm). The assay is classed as cell-based. In outline:
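HCT116 cells (5000/well) in DMEM with 10% fetal calf serum incubated 48 h at 37° C with [14C]-thymidine (0.1 μCi/well) and compound up to 10 μm (DMSO ≤0.5%). Incorporated radioactivity counted; IC50 is concentration cutting radioactivity by 50% versus untreated control.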
(In general: Dividing cells build labelled thymidine or BrdU into new DNA.)

The test system of assay [1] is HDMEC cells (Human Dermal Microvascular Endothelial Cells). Kind of assay: Detachment of endothelial cells (test for determining the inhibition of vascularization). Type of assay: cell-based. The conditions noted are these: two hours of treatment, calcein labeling, relative to untreated control. The text has this:
A test for determining the detachment of the endothelial cells was developed in order to select the products with regard to their “in vitro” activity. This test for determining the detachment of endothelial cells is characterized in that the endothelial cells, inoculated into plates whose bottom is covered with a binder preferably chosen from gelatin, fibronectin and vitronectin, after culturing, are supplemented with a medium containing the test compound, and the cells are then labeled with a fluorescent substance, the, cells which have become detached are removed by washing and the fluorescence of the remaining cells is counted in a fluorimeter.
This test consists in measuring the detachment of endothelial cells cultured on substrata based on a binder preferably chosen from fibronectin, vitronectin and gelatin. […] The fluorescence of the remaining cells is counted in a fluorimeter. […]
The evaluation of the detachment of the endothelial cells in vitro is determined in the following manner. […] The fluorescence of the cells that remain attached to the substratum of the well is counted using a fluorimeter, Spectrafluor Plus (Tecan excitation 485 nm, and emission 535 nm). The data are the mean of six different samples and are expressed as the percentage of the control (untreated cells). […]

T1 sequence (P02550 whole entry): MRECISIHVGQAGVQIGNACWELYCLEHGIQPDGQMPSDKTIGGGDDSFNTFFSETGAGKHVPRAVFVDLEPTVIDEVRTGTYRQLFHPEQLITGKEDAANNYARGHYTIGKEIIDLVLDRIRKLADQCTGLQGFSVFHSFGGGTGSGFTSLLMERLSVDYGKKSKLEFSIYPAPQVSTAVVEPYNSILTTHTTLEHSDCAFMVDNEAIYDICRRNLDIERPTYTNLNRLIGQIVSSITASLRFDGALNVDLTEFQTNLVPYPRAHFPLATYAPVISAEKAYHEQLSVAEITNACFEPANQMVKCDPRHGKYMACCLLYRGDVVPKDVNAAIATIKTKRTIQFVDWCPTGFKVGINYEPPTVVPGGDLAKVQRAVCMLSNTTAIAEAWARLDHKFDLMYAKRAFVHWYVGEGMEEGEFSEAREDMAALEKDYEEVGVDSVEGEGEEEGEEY
T1 sequence (P02554 whole entry): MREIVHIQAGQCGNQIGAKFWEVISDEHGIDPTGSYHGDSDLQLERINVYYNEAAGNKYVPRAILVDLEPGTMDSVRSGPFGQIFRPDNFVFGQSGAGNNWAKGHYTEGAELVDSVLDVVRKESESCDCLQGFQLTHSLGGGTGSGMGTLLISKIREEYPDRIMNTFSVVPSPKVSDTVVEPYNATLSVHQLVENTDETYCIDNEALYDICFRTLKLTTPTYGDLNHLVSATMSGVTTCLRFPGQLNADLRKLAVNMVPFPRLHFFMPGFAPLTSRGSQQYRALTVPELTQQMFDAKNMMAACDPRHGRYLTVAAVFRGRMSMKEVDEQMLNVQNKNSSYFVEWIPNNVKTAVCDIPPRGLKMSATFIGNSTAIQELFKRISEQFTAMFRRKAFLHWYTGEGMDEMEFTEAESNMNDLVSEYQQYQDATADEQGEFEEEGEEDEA

In the case of `Cc1cc(C(=O)N2CCN(c3ccc(C)c(C)c3)CC2)n(-c2ccccc2)n1` [Example 2, [4-(3,4-Dimethylphenyl)piperazin-1-yl](5-methyl-2-phenyl-2H-pyrazol-3-yl)methanone], the values for the IC50 at tubulin and with HCT116 cells were 600 nM and 160 nM, respectively. The “Percentage detachment of HDMEC at 1 μm” value in assay [1] was 16%.

In the case of `Cc1cc(C(=O)N2CCN(c3cccc(Cl)c3)CC2)n(-c2ccccc2)n1` [Example 1, [4-(3-Chlorophenyl)piperazin-1-yl](5-methyl-2-phenyl-2H-pyrazol-3-yl)methanone], the IC50 on tubulin turned out to be 600 nM; in the assay on HCT116 cells, 2 nM. Moreover, the “Percentage detachment of HDMEC at 1 μm” value in assay [1] is given as 22%.
